Key:
DPP3 = assay: Gene expression in HT29 cancer cells (in vitro); type: cell-based, human; conditions: standardized to 0 h
Description: (§1) Hatched columns relate to blood, black columns relate to HepG2 cells, white boxes relate to HT 29 cells. Values are standardized to the value at 0 h.
(§2) Samples were obtained and gene expressions were determined with the methods as described herein below. The results are shown in below table 3 and FIGS. 2 and 3
(§3) The above values represent a mean value which was determined on the basis of 2 biological replicates, for each of which 3 technical replicates were prepared. […] The level of gene expression determined in peripheral blood samples can be correlated with a certain level of activity of HDAC in the diseased cells, e.g. by applying an appropriate conversion factor or conversion table, which may be determined for each specific disease, and/or patient group.
(§4) To determine RNA expression levels of ZFP64 in different cancer cell lines and PBMC, the cell membranes were chemically disrupted with a buffer containing guanidine isothiocycanate, which lyses the cells and supports the binding of RNA to a silica membrane and RNA was extracted via a filter-based spin column.
(§5) The High-Capacity cDNA Reverse Transcription Kit (Applied Biosystems) was used for reverse transcription of total RNA into single stranded cDNA with the aid of random hexamer primers according to the manufacturer's instructions. Briefly, for the reaction mix total RNA was mixed with random primers in excess, 4 mM dNTP Mix, 2.5 U/reaction, reverse transcriptase and nuclease free water. The reverse transcription took place in a thermal cycler under the following conditions: 25° C. for 10 min, 37° C. for 120 min, 85° C. for 5 min, followed by 4° C. for cooling down the reaction. The reverse transcription can be done in principle as well with other reverse transcriptases, primers and temperature protocols. Whenever possible, 250 ng total RNA were reverse transcribed if not available, lower amounts were used.
(§6) Custom TaqMan® Arrays (Applied Biosystems) in Format 16 were designed for the gene expression analysis of biomarkers of the present invention and housekeeping genes as outlined in table 4. These arrays allow for qPCR analysis of 8 samples per card. Of course, all reactions can be done as well by conventional qPCR analysis with specific primers.

GAPDH = assay: Gene expression in HT29 cancer cells (in vitro); type: cell-based, human; conditions: standardized to 0 h
Description: as §1, §2, §3, §4, §5, §6

HIST2H4A/B = assay: Gene expression in HT29 cancer cells (in vitro); type: cell-based, human; conditions: standardized to 0 h
Description: as §1, §2, §3, §4, §5, §6

ZFP64 = assay: Gene expression in HT29 cancer cells (in vitro); type: cell-based, human; conditions: standardized to 0 h
Description: as §1, §2, §3, §4, §5, §6

MICALL1 = assay: Gene expression in HT29 cancer cells (in vitro); type: cell-based, human; conditions: standardized to 0 h
Description: as §1, §2, §3, §4, §5, §6

18S = assay: Gene expression in HT29 cancer cells (in vitro); type: cell-based, human; conditions: standardized to 0 h
Description: as §1, §2, §3, §4, §5, §6

CCDC43 = assay: Gene expression in HT29 cancer cells (in vitro); type: cell-based, human; conditions: standardized to 0 h
Description: as §1, §2, §3, §4, §5, §6

TBP = assay: Gene expression in HT29 cancer cells (in vitro); type: cell-based, human; conditions: standardized to 0 h
Description: as §1, §2, §3, §4, §5, §6

KDELC2 = assay: Gene expression in HT29 cancer cells (in vitro); type: cell-based, human; conditions: standardized to 0 h
Description: as §1, §2, §3, §4, §5, §6

[1] = tested on: hepatocellular cancer (HCC); assay: SHELTER clinical trial, overall survival (Kaplan-Meier) by baseline ZFP64 expression; type: in vivo, human
Description: Resminostat was explored as monotherapy and in combination with sorafenib. Patients with advanced HCC (BCLC staging B/C) were included in a multi-center, two-arm trial. […] A dose escalation of resminostat (range 200 to 600 mg) combined with Sorafenib (400 or 800 mg) was performed. Arm A investigated the drug combination (resminostat+sorafenib), Arm B the monotherapy of resminostat (600 mg). Primary objective was the progression-free survival rate (PFSR) after 12 weeks (w). Secondary objectives included safety, tolerability, tumor response, PFS, TTP, OS and the analyses of PK and biomarkers (BM), incl. HDAC enzyme inhibition, histone acetylation and gene expressions in peripheral blood. Based on the results and indications seen in the analysis in example 3a, the dCt values of ZFP64 at baseline were treated with the method described here for determining the split between gene expression groups. Data was processed as follows: Gene expression data of the genes of interest was gathered as real time PCR dCt values relative to the expression of housekeeping genes for a specific time point, e.g. at baseline prior to treatment start. […] Said two groups were then compared in Kaplan-Meier analyses for OS, PFS in order to identify a statistically significant difference that separates the patients' probability for OS, PFS.

[2] = SHELTER patients on resminostat 600 mg or resminostat 600 mg + sorafenib 400 mg, pooled, split at 75th percentile
[3] = SHELTER, single arm, resminostat 600 mg (combination: + sorafenib 400 mg), split at 75th percentile
[4] = all available SHELTER patients (monotherapy and sorafenib combination arms pooled), split 60% high/40% low

Compound: CN(C)Cc1ccc(S(=O)(=O)n2ccc(/C=C/C(=O)NO)c2)cc1 [resminostat, (E)-3-(1-(4-((dimethylamino)methyl)phenylsulfonyl)-1H-pyrrol-3-yl)-N-hydroxyacrylamide]
- Expression level, DPP3 (DPP3; 2 h): 0.87
- Expression level, DPP3 (DPP3; 5 h): 0.72
- Expression level, GAPDH (housekeeping gene) (GAPDH; 2 h): 0.93
- Expression level, GAPDH (housekeeping gene) (GAPDH; 5 h): 0.97
- Expression level, HIST2H4A/B (HIST2H4A/B; 2 h): 0.96
- Expression level, HIST2H4A/B (HIST2H4A/B; 5 h): 0.88
- Expression level, ZFP64 (ZFP64; 2 h): 0.58
- Expression level, ZFP64 (ZFP64; 5 h): 0.25
- Expression level, MICALL1 (MICALL1; 2 h): 0.81
- Expression level, MICALL1 (MICALL1; 5 h): 0.42
- Expression level, 18s (housekeeping gene) (18S; 2 h): 0.94
- Expression level, 18s (housekeeping gene) (18S; 5 h): 0.91
- Expression level, CCDC43 (CCDC43; 2 h): 0.82
- Expression level, CCDC43 (CCDC43; 5 h): 0.53
- Expression level, TBP (housekeeping gene) (TBP; 2 h): 1.15
- Expression level, TBP (housekeeping gene) (TBP; 5 h): 1.13
- Expression level, KDELC2 (KDELC2; 2 h): 0.79
- Expression level, KDELC2 (KDELC2; 5 h): 0.35
- median OS (high ZFP64 expression) [1, 2]: 9.4 months
- median OS (low ZFP64 expression) [1, 2]: 5.1 months
- overall median OS for the two groups ([1]; SHELTER, single arm, resminostat 600 mg (combination: + sorafenib 400 mg)): 3.7 months
- median OS for high ZFP64 expression [1, 3]: 7.0 months
- median OS for low ZFP64 expression [1, 3]: 0.9 months
- median OS (high ZFP64 expression) [1, 4]: 8 months
- median OS (low ZFP64 expression) [1, 4]: 3.9 months

— US20160215348A1, “GENE EXPRESSION BIOMARKERS AND THEIR USE FOR DIAGNOSTIC AND PROGNOSTIC APPLICATION IN PATIENTS POTENTIALLY IN NEED OF HDAC INHIBITOR TREATMENT” (4SC AG, priority 2013, published 2016)
